ChEMBL document CHEMBL1201862, “PubChem BioAssay data set” (2004)
Calls of active or inactive are those of the source.

Legend:
[1] = target: T1, Sentrin-specific protease 1 (Homo sapiens, UniProt Q9P0U3); experiment: potency of human SENP1 inhibitors, dose response, biochemical, kinetic FRET (AID 651697); type: functional; details: read-out: IC50_Mean
T1 sequence (Q9P0U3 whole entry): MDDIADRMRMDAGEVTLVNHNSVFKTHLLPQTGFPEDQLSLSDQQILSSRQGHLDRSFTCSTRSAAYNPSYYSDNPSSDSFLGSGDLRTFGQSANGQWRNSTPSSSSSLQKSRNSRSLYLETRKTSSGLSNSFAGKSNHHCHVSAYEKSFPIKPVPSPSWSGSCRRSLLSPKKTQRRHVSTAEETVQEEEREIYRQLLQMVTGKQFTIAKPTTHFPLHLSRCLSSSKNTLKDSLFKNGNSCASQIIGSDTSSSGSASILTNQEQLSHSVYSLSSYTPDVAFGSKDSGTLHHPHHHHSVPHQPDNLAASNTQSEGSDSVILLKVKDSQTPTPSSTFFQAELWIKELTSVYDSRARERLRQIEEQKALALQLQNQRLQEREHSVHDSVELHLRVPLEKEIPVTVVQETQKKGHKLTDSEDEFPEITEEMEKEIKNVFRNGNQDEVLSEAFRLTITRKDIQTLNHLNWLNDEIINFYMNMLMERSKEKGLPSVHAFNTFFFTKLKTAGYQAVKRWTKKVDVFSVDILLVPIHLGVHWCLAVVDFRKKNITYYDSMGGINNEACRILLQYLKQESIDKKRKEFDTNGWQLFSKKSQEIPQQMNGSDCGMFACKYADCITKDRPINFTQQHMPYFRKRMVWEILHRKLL

[2] = target: T1, Sentrin-specific protease 1; experiment: Dose response confirmation of small molecule inhibitors of the catalytic domain of the SUMO protease, SENP1 in a FRET assay.; type: functional; details: read-out: IC50_Mean
[3] = T. cruzi intracellular amastigote growth inhibition, dose response, imaging, CA-I/72 strain, bovine embryo skeletal muscle, dry powder (AID 651885); type: functional, cell-based
[4] = target: Ras and Rab interactor 1/Tyrosine-protein kinase ABL1 (Homo sapiens, UniProt P00519+Q13671); type: functional;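 also: biochemical TR-FRET dose-response test measuring inhibition of binding between Rin1 and Abl proteins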
Beta-galactosidase = Beta-galactosidase (Escherichia coli, UniProt Q8VNN2); experiment: Dose response counterscreen for EBI2 assay utilizing the enzyme, b-galactosidase.; type: functional
[5] = target: T2, Heat shock factor protein 1 (Mus musculus, UniProt P38532); experiment: HSF1 potentiators in luciferase reporter cells, confirmation, cell-based, NIH3T3, luminescence, dose retest (AID 435004); type: functional;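 also: stress induced by proteasome inhibitor MG132 added 30 min after compound; luciferase reporter driven by HSF1 response element in NIH3T3 cells; actives raise luminescence as potentiators of the MG132 stress response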
T2 sequence (P38532 whole entry): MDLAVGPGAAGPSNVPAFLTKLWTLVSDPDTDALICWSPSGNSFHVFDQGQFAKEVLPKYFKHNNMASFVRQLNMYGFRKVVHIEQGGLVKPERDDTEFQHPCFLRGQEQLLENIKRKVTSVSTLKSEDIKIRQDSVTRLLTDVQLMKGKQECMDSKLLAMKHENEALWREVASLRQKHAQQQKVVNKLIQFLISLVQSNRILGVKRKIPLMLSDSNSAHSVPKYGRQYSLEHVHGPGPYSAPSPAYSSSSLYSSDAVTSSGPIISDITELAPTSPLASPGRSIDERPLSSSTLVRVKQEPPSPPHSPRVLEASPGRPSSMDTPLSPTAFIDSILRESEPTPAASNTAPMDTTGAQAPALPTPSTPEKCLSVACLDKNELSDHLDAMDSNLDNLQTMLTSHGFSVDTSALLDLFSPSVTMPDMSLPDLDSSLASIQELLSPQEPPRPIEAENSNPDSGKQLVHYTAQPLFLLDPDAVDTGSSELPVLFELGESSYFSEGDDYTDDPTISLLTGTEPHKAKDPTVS

[6] = target: 1-phosphatidylinositol 4,5-bisphosphate phosphodiesterase gamma-1 (Homo sapiens, UniProt P19174); experiment: Counterscreen for inhibitors of phospholipase C isozymes (PLC-B3): Fluorescence-based biochemical high throughput dose response assay to identify inhibitors of phospholipase C isozymes (PLC-gamma1).
[7] = target: 1-phosphatidylinositol 4,5-bisphosphate phosphodiesterase beta-3 (Homo sapiens, UniProt Q01970); experiment: Fluorescence-based biochemical high throughput dose response assay to identify inhibitors of phospholipase C isozymes (PLC-B3).
[8] = HepG2 cell cytotoxicity, dose response, cytotoxicity control, plate reader, cherry-pick, antagonist series (AID 743416); type: functional, cell-based
[9] = A549 cell cytotoxicity, dose response, cytotoxicity control, plate reader, cherry-pick, antagonist series (AID 743412); type: functional, cell-based
[10] = target: T3, Trace amine-associated receptor 1 (Homo sapiens, UniProt Q96RJ0); experiment: Fluorescence-based cell-based high throughput dose response assay to identify agonists of the human trace amine associated receptor 1 (TAAR1).; type: functional
T3 sequence (Q96RJ0 whole entry): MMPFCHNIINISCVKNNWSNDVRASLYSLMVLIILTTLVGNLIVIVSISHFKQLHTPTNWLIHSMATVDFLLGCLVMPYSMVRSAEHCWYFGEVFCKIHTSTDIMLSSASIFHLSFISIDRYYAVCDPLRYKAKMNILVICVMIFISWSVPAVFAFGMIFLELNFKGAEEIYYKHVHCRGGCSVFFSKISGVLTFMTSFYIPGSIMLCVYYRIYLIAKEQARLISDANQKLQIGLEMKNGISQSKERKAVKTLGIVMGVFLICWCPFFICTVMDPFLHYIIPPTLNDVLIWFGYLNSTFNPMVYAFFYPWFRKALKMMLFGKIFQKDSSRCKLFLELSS

cells [11] = type: functional, cell-based
cells [12] = type: functional, cell-based; remark: listed apart in the source
[13] = target: T3, Trace amine-associated receptor 1; experiment: Counterscreen for agonists of the human trace amine associated receptor 1 (hTAAR1): Fluorescence-based cell-based high throughput dose response assay to identify hTAAR1 agonist that also desensitize TAAR1 receptor response.; type: functional
HeLa = experiment: HeLa cell cytotoxicity, dose response, cytotoxicity control, ATP luminescence, cherry-pick samples (AID 687004); type: functional, cell-based; details: Homo sapiens
[14] = target: Tyrosine-protein phosphatase non-receptor type 11 (Homo sapiens, UniProt Q06124); experiment: SHP2 phosphatase inhibition, dose response, selectivity assay for STEP inhibitor project, biochemical (AID 602367); type: functional; details: read-out: IC50_Mean
[15] = target: T4, Tyrosine-protein phosphatase non-receptor type 22 (Homo sapiens, UniProt Q9Y2R2); experiment: PTPN22 phosphatase inhibition, dose response, selectivity assay for STEP inhibitor project, biochemical (AID 624241); type: functional
T4 sequence (Q9Y2R2 whole entry): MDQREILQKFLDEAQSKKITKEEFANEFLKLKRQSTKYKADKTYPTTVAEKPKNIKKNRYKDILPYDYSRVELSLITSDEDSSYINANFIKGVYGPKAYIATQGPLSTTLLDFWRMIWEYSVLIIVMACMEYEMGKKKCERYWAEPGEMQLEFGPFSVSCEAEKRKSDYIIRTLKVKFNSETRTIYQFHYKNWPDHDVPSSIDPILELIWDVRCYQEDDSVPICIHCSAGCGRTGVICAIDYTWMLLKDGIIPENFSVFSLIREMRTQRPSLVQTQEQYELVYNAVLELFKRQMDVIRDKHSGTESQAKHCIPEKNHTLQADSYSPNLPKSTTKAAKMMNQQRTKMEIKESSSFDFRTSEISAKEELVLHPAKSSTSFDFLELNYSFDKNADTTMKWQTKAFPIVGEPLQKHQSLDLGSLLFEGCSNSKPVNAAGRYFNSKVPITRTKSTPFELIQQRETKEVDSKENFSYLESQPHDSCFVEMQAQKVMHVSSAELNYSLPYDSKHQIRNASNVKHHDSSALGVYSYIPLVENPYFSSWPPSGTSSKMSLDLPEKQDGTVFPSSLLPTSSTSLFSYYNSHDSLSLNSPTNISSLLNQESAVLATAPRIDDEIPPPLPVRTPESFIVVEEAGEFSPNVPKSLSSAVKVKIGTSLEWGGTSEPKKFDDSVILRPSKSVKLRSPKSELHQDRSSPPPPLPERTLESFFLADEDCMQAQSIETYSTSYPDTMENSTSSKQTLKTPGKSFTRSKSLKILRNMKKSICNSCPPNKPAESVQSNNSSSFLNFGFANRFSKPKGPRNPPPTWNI

[16] = target: Tyrosine-protein phosphatase non-receptor type 5 (Homo sapiens, UniProt P54829); experiment: STEP phosphatase inhibitors, confirmation, biochemical, fluorescence intensity, uHTS hits (AID 602372); type: functional; details: read-out: IC50_Mean
[17] = target: Dual specificity protein phosphatase 3 (Homo sapiens, UniProt P51452); experiment: VHR phosphatase inhibition, dose response, selectivity assay for STEP inhibitor project, biochemical (AID 602374); type: functional; details: read-out: IC50_Mean
[18] = HEK293T cytotoxicity, dose response, cytotoxicity control for miR-122 modulator project, cell-based, inhibitor set, cherry-pick, set 2 (AID 720697); type: functional
[19] = LGR2 antagonists, dose response, cell-based, HEK293, CRE-luciferase reporter, cherry pick, set 2 (AID 743343); type: functional;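 also: transfected cells were stimulated with diluted bursicon conditioned medium after compound addition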
[20] = HEK293 cell cytotoxicity, dose response, cytotoxicity control, plate reader, cherry-picked samples (AID 743446); type: functional, cell-based
[21] = MC4R antagonists, dose response, counter-screen for LGR2 antagonist project, cell-based, plate reader, cherry pick (AID 743444); type: functional;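 also: transfected HEK 293 cells stimulated with alpha-MSH peptide; potency of inhibitors of the alpha-MSH evoked signal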
[22] = HEp-2 cell cytotoxicity, dose response, cytotoxicity control for RSV inhibitor project, HTS (AID 2410); type: functional; details: human respiratory syncytial virus
cells [23] = experiment: cells
cells [24] = type: functional, cell-based; remark: listed apart in the source
[25] = target: T5, Nuclear receptor subfamily 0 group B member 1 (Homo sapiens, UniProt P51843); type: functional, cell-based;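 also: HEK293T cells transfected with SF-1 and DAX-1 plus StAR promoter luciferase reporter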
T5 sequence (P51843 whole entry): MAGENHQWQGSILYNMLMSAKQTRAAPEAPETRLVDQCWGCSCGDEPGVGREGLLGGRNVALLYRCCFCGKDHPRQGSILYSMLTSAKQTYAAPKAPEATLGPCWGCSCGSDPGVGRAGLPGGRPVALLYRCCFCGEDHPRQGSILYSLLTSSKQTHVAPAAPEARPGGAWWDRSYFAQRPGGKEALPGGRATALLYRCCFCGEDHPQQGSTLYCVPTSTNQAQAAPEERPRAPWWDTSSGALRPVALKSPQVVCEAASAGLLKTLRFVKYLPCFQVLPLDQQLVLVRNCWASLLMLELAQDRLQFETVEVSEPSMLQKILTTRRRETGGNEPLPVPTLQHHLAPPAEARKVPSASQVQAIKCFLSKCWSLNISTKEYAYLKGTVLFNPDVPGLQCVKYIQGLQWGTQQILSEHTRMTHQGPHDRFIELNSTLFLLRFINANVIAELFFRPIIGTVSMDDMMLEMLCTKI

Chain of Tyrosine-protein phosphatase non-receptor type 5 (P54829 whole entry): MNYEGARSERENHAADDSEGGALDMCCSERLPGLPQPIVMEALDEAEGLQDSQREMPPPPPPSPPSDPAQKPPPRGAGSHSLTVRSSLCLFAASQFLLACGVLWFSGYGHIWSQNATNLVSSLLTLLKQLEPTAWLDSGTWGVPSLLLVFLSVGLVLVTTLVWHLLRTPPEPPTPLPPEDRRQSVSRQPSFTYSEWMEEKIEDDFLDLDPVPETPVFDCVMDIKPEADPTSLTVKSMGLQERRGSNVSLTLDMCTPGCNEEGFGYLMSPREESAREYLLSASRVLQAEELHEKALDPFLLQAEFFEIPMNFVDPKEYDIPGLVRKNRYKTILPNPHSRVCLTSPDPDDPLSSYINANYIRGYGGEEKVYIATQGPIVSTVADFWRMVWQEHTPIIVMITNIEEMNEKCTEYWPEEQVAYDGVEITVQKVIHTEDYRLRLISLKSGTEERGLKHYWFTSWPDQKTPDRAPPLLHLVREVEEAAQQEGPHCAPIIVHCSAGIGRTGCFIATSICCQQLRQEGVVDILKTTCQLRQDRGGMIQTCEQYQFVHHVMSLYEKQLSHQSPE
Chain of Beta-galactosidase (Q8VNN2 whole entry): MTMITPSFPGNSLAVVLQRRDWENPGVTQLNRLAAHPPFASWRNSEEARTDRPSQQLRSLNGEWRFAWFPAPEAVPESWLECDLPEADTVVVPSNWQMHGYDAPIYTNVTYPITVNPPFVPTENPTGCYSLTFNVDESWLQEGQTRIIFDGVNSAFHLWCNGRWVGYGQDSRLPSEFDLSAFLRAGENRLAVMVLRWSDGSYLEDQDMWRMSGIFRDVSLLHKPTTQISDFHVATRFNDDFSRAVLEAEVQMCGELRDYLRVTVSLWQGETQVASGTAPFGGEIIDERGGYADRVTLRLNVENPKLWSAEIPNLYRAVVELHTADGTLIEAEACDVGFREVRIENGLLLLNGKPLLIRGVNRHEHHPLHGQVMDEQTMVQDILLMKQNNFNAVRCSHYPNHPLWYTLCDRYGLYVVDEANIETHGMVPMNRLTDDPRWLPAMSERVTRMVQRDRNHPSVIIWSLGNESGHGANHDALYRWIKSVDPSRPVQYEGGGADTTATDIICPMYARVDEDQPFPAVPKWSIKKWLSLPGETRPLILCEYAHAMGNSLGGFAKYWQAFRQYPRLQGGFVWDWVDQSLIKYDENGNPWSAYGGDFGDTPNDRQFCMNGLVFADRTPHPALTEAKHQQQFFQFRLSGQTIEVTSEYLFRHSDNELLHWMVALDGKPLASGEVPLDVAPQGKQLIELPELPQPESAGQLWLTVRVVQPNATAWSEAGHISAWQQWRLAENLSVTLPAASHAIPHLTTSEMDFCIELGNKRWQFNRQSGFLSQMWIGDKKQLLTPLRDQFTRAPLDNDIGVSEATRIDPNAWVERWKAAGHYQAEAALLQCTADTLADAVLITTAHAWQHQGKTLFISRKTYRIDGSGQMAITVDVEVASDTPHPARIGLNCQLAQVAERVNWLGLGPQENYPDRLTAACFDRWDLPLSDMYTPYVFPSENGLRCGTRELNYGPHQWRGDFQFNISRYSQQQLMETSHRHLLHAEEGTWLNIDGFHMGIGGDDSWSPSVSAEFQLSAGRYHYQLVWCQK
Chain of Tyrosine-protein phosphatase non-receptor type 11 (Q06124 whole entry): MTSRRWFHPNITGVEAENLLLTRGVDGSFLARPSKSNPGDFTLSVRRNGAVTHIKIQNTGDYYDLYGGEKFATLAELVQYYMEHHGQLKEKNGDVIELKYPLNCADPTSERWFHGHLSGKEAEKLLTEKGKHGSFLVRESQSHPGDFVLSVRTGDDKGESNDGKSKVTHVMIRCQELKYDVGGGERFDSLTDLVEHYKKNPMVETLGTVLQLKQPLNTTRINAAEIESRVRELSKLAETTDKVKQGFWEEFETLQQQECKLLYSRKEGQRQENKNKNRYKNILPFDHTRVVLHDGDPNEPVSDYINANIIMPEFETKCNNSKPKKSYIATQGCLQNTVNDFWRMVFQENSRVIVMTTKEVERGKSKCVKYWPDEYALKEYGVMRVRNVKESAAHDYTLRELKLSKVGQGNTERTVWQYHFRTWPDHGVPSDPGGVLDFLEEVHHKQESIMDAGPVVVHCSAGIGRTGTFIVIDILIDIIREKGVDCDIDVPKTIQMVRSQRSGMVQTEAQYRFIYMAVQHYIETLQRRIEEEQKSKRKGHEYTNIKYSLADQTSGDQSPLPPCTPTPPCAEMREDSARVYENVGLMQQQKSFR
Chain of Dual specificity protein phosphatase 3 (P51452 whole entry): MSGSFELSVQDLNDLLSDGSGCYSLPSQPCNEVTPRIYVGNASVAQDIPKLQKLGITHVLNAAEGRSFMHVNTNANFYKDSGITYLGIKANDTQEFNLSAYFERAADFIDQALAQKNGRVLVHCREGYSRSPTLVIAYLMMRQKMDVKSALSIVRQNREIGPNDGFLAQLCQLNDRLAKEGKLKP
Chain of 1-phosphatidylinositol 4,5-bisphosphate phosphodiesterase gamma-1 (P19174 whole entry): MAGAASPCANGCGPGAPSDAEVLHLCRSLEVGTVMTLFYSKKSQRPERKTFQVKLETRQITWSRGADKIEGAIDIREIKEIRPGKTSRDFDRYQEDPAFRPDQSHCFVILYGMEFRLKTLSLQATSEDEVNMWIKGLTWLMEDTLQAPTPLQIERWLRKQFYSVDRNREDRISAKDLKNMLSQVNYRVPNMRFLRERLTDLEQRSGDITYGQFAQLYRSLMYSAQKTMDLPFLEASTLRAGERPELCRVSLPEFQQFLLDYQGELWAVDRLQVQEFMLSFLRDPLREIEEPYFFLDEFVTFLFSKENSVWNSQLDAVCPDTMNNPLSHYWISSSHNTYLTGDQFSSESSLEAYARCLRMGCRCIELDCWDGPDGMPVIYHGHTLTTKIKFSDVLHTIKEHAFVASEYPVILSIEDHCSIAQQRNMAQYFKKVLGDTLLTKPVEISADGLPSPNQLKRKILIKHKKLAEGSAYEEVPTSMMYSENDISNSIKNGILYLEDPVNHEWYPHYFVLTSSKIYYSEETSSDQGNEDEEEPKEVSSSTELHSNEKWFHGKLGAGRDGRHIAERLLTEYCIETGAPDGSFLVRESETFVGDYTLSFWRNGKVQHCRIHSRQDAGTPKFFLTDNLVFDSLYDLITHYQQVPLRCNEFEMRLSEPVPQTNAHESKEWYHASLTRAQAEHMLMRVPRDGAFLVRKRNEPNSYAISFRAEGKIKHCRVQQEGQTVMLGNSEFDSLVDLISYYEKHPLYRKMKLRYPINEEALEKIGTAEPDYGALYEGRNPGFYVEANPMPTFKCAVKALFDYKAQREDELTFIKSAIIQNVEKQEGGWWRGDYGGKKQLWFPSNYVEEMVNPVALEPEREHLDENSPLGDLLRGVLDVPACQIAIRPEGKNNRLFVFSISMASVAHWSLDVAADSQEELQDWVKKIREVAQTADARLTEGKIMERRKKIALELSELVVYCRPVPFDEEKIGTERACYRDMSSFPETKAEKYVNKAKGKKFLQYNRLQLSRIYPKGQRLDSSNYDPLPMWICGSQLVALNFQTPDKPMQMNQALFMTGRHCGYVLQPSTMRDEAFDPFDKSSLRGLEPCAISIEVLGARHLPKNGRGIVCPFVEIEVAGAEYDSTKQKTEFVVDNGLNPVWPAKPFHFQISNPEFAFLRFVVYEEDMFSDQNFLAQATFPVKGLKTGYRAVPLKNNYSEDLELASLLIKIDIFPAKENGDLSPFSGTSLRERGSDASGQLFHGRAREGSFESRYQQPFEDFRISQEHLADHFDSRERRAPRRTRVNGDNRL
Chain of 1-phosphatidylinositol 4,5-bisphosphate phosphodiesterase beta-3 (Q01970 whole entry): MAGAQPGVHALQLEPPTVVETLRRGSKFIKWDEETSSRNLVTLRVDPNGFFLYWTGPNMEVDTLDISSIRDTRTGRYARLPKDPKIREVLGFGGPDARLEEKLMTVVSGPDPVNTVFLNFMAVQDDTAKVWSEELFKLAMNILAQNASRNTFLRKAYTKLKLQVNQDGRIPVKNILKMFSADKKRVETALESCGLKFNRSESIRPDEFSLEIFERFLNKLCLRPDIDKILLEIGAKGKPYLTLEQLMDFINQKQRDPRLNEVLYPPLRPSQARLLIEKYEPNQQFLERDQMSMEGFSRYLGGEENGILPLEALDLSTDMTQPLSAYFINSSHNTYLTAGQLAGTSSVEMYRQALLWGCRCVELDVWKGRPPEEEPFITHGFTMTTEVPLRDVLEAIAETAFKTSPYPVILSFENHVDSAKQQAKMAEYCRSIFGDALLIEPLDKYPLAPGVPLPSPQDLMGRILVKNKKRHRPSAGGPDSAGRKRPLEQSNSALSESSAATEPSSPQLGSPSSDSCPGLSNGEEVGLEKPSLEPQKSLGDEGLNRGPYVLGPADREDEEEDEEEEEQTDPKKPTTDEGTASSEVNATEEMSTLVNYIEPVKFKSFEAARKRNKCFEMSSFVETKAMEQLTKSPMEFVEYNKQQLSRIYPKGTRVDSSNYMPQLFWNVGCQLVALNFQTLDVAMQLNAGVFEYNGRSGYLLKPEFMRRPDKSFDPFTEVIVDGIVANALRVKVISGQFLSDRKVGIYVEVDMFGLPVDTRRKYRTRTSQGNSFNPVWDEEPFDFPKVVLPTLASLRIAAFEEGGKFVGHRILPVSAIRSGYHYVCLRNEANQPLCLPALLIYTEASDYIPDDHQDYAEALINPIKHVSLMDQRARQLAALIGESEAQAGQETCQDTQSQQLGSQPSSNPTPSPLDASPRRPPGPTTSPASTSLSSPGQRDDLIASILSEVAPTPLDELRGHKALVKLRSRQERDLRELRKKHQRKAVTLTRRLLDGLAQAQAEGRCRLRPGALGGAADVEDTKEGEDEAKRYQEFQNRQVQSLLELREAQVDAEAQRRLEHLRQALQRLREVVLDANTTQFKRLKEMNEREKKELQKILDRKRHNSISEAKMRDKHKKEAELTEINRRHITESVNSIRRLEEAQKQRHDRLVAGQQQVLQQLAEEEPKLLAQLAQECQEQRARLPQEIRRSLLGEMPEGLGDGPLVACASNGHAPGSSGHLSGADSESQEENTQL

## COc1cccc(-c2nc(SC)nc3sc(C(=O)NC(C)(C)C)c(N)c23)c1
[1]
  IC50: 19.1 µM (active)
[2]
  IC50: 15.2 µM (active)

## C[C@@H]1CN([C@@H](C)CO)C(=O)c2cc(Br)cnc2O[C@H]1CN(C)Cc1ccc2c(c1)OCO2
[3]
  IC50: > 20 µM (inactive)

## OC[C@@H]1CN(Cc2ccc(Cl)cc2)C[C@H](n2cnc3c(NC4CC4)ncnc32)O1
[4]
  IC50: 37.2 µM (inactive)
Beta-galactosidase
  IC50: > 80 µM (inactive)

## CC/C(NCc1ccco1)=C1/C(=O)NC(=O)N(C2CCCCC2)C1=O
[5]
  EC50: > 260 µM (inactive)
[6]
  IC50: > 122 µM (inactive)
[7]
  IC50: > 122 µM (inactive)

## O=C(COc1ccc(Cl)cc1)N1CCN(Cc2ccccc2)CC1
Beta-galactosidase
  IC50: > 80 µM (inactive)

## COc1ccc(CCNC(=O)C2CCN(S(=O)(=O)c3ccc(Cl)cc3)CC2)cc1OC
[8]
  AC50: 35.2 µM (active)
[9]
  AC50: 35.3 µM (active)

## CCc1ccccc1S(=O)(=O)Cc1ccc(C(=O)NCCc2ccccc2)o1
[10]
  EC50: 4.46 µM (active)
Cells [11]
  EC50: > 29.9 µM (inactive)
Cells [12]
  IC50: 20 µM (inactive)
[13]
  IC50: 6.38 µM (active)

## O=C(C1CCOCC1)N1C[C@H]2[C@@H](c3ccccc31)[C@@H](CO)N2Cc1ccccc1Cl
HeLa
  AC50: > 52 µM (inactive)

## Cc1ccccc1C(=O)N[C@H](C(=O)N1CCC[C@H]1C(=O)NCCc1ccccc1Cl)C(C)C
[10]
  EC50: 1.64 µM (active)
Cells [11]
  EC50: > 29.9 µM (inactive)
Cells [12]
  IC50: > 3.32 µM (active)
[13]
  IC50: 3.15 µM (active)

## Cc1ccc(N2CCN(C(CCc3ccccc3)C(=O)Nc3c(C)cccc3C)CC2)cc1 (stereo unspecified)
HeLa
  AC50: > 52 µM (inactive)

## COc1cc(/C=C2/SC(=S)N(CC(=O)O)C2=O)ccc1OCC(=O)Nc1ccc(C)c(C)c1
[14]
  IC50: 3.64 µM (active)
[15]
  IC50: 16.5 µM (active)
[16]
  IC50: 6.72 µM (active)
[17]
  IC50: 4.32 µM (active)

## O=C(O)CN1C(=O)S/C(=C2/C(=O)Nc3ccccc32)C1=O
[1]
  IC50: 13.7 µM (active)
[2]
  IC50: 3.7 µM (active)

## COc1ccc(-c2c(C(C)=O)c(C)nc3sc4c(c23)NC(c2ccccc2)NC4=O)cc1 (stereo unspecified)
[18]
  AC50: 2.66 µM (active)

## CCCCCn1c(=O)[nH]c2cc(C(=O)NCCN3C(C)CCCC3C)ccc2c1=O (stereo unspecified)
[18]
  AC50: 2.22 µM (active)

## O=C(NN=Cc1ccccc1O)c1cccc([N+](=O)[O-])c1
[14]
  IC50: 2.39 µM (active)
[15]
  IC50: > 100 µM (inactive)
[16]
  IC50: 8.95 µM (active)
[17]
  IC50: 3.13 µM (active)

## COc1ccccc1N(Cc1ccccc1)S(=O)(=O)c1cccc(C(=O)Nc2cc(C)ccn2)c1
[19]
  AC50: 4.92 µM (active)
[20]
  AC50: 4.09 µM (active)
[21]
  AC50: 3.95 µM (active)
[9]
  AC50: 32.2 µM (active)
[22]
  CC50: 21.8 µM (active)
Cells [23]
  IC50: 38.5 µM (active)

## COc1ccc(-c2cc(NC=O)c3ncc(-c4ccc(OC)c(OC)c4)n3c2)c(OC)c1
Cells [24]
  IC50: > 67.6 µM (inactive)
[25]
  IC50: > 67.6 µM (inactive)
